{"source": "ChEMBL document CHEMBL1149765", "about": "“Anti-tumor 12-deoxyphorbol esters from Euphorbia cornigera” (Eur J Med Chem, 2008)", "key": {"[1]": {"tested_on": "KB", "experiment": "Inhibition of DNA synthesis in human KB cells assessed as 5-bromo-2'-deoxyuridin incorporation at 5.0 ug/ml", "type": "functional"}, "[2]": {"tested_on": "KB", "experiment": "Cytotoxicity against human KB cells assessed as viable cells at 5.0 ug/ml by trypan blue exclusion assay", "type": "functional", "conditions": "read-out: Activity"}, "[3]": {"tested_on": "KB", "experiment": "Cytotoxicity against human KB cells assessed as necrotic cells at 1.0 ug/ml by trypan blue exclusion assay", "type": "functional"}, "[4]": {"tested_on": "KB", "experiment": "Cytotoxicity against human KB cells assessed as apoptotic cells at 5.0 ug/ml by trypan blue exclusion assay", "type": "functional"}, "[5]": {"tested_on": "KB", "experiment": "Inhibition of DNA synthesis in human KB cells assessed as ratio of DNA in treated to control cells at 2.5 ug/ml", "type": "functional"}, "[6]": {"tested_on": "KB", "experiment": "Cytotoxicity against human KB cells assessed as viable cells at 2.5 ug/ml by trypan blue exclusion assay", "type": "functional", "conditions": "read-out: Activity"}, "[7]": {"tested_on": "KB", "experiment": "Cytotoxicity against human KB cells assessed as viable cells at 1.0 ug/ml by trypan blue exclusion assay", "type": "functional", "conditions": "read-out: Activity"}, "[8]": {"tested_on": "KB", "experiment": "Inhibition of DNA synthesis in human KB cells assessed as ratio of DNA in treated to control cells at 1.0 ug/ml", "type": "functional"}, "[9]": {"tested_on": "KB", "experiment": "Cytotoxicity against human KB cells assessed as necrotic cells at 2.5 ug/ml by trypan blue exclusion assay", "type": "functional"}, "[10]": {"tested_on": "KB", "experiment": "Cytotoxicity against human KB cells assessed as apoptotic cells at 2.5 ug/ml by trypan blue exclusion assay", "type": "functional"}, "[11]": {"tested_on": "KB", "experiment": "Cytotoxicity against human KB cells assessed as apoptotic cells at 1.0 ug/ml by trypan blue exclusion assay", "type": "functional"}, "[12]": {"tested_on": "KB", "experiment": "Cytotoxicity against human KB cells by MTT assay", "type": "functional, cell-based"}, "[13]": {"tested_on": "KB", "experiment": "Cytotoxicity against human KB cells assessed as necrotic cells at 5.0 ug/ml by trypan blue exclusion assay", "type": "functional"}, "[14]": {"tested_on": "KB", "experiment": "Inhibition of DNA synthesis in human KB cells assessed as 5-bromo-2'-deoxyuridin incorporation at 2.5 ug/ml", "type": "functional"}, "[15]": {"tested_on": "KB", "experiment": "Cytotoxicity against human KB cells assessed as necrotic cells at 0.3 ug/ml by trypan blue exclusion assay", "type": "functional"}, "[16]": {"tested_on": "KB", "experiment": "Cytotoxicity against human KB cells assessed as apoptotic cells at 0.3 ug/ml by trypan blue exclusion assay", "type": "functional"}, "[17]": {"tested_on": "KB", "experiment": "Cytotoxicity against human KB cells assessed as viable cells at 0.3 ug/ml by trypan blue exclusion assay", "type": "functional", "conditions": "read-out: Activity"}, "[18]": {"tested_on": "KB", "experiment": "Inhibition of DNA synthesis in human KB cells assessed as 5-bromo-2'-deoxyuridin incorporation at 0.3 ug/ml", "type": "functional"}, "[19]": {"tested_on": "KB", "experiment": "Inhibition of DNA synthesis in human KB cells assessed as ratio of DNA in treated to control cells at 0.3 ug/ml", "type": "functional"}}, "data": [{"smiles": "CCCCCCCCCC(=O)OCC1=C[C@H]2[C@@H]3C(C)(C)[C@]3(OC(=O)CCCCCCCCC)C[C@@H](C)[C@]2(O)[C@@H]2C=C(C)C(=O)[C@@]2(O)C1", "values": [{"measurement": "inhibition at 5 µg/mL", "setting": "[1]", "value": 27.9, "unit": "%"}, {"measurement": "viability at 5 µg/mL", "setting": "[2]", "value": 15.9, "unit": "%"}, {"measurement": "Activity", "setting": "[3]", "value": 2, "unit": "%"}, {"measurement": "Activity", "setting": "[4]", "value": 78.13, "unit": "%"}, {"measurement": "Ratio", "setting": "[5]", "value": 0.71}, {"measurement": "viability at 2.5 µg/mL", "setting": "[6]", "value": 36.7, "unit": "%"}, {"measurement": "viability at 1 µg/mL", "setting": "[7]", "value": 58.8, "unit": "%"}, {"measurement": "Ratio", "setting": "[8]", "value": 0.57}, {"measurement": "Activity", "setting": "[9]", "value": 3, "unit": "%"}, {"measurement": "Activity", "setting": "[10]", "value": 60.29, "unit": "%"}, {"measurement": "Activity", "setting": "[11]", "value": 39.24, "unit": "%"}, {"measurement": "IC50", "setting": "[12]", "value": 0.5, "unit": "µg/mL"}, {"measurement": "Activity", "setting": "[13]", "value": 6, "unit": "%"}, {"measurement": "inhibition at 2.5 µg/mL", "setting": "[14]", "value": 86, "unit": "%"}]}, {"smiles": "C/C=C(\\C)C(=O)OCC1=C[C@H]2[C@@H]3C(C)(C)[C@]3(OC(=O)CCCCCCCCC)C[C@@H](C)[C@]2(O)[C@@H]2C=C(C)C(=O)[C@@]2(O)C1", "values": [{"measurement": "IC50", "setting": "[12]", "value": 7.6, "unit": "µg/mL"}]}, {"smiles": "CCCCCCCCCC(=O)OCC1=C[C@H]2[C@@H]3C(C)(C)[C@]3(OC(=O)CCCCCCC)C[C@@H](C)[C@]2(O)[C@@H]2C=C(C)C(=O)[C@@]2(O)C1", "values": [{"measurement": "inhibition at 5 µg/mL", "setting": "[1]", "value": 23, "unit": "%"}, {"measurement": "viability at 5 µg/mL", "setting": "[2]", "value": 26.1, "unit": "%"}, {"measurement": "Activity", "setting": "[3]", "value": 0, "unit": "%"}, {"measurement": "Activity", "setting": "[4]", "value": 70.89, "unit": "%"}, {"measurement": "Ratio", "setting": "[5]", "value": 0.71}, {"measurement": "viability at 2.5 µg/mL", "setting": "[6]", "value": 65, "unit": "%"}, {"measurement": "viability at 1 µg/mL", "setting": "[7]", "value": 74.7, "unit": "%"}, {"measurement": "Ratio", "setting": "[8]", "value": 0.87}, {"measurement": "Activity", "setting": "[9]", "value": 1, "unit": "%"}, {"measurement": "Activity", "setting": "[10]", "value": 34, "unit": "%"}, {"measurement": "Activity", "setting": "[11]", "value": 25.23, "unit": "%"}, {"measurement": "IC50", "setting": "[12]", "value": 0.8, "unit": "µg/mL"}, {"measurement": "Activity", "setting": "[13]", "value": 3, "unit": "%"}, {"measurement": "inhibition at 2.5 µg/mL", "setting": "[14]", "value": 85, "unit": "%"}]}, {"smiles": "COc1ccc(C(=O)OCC2=C[C@H]3[C@@H]4C(C)(C)[C@]4(OC(C)=O)C[C@@H](C)[C@]3(O)[C@@H]3C=C(C)C(=O)[C@@]3(O)C2)cc1", "values": [{"measurement": "IC50", "setting": "[12]", "value": 8.5, "unit": "µg/mL"}]}, {"smiles": "CCCCCCCCCCCC(=O)O[C@@]12C[C@@H](C)[C@@]3(O)[C@@H](C=C(COC(=O)CCCCCCCCC)C[C@]4(O)C(=O)C(C)=C[C@@H]34)[C@@H]1C2(C)C", "values": [{"measurement": "inhibition at 5 µg/mL", "setting": "[1]", "value": 25.9, "unit": "%"}, {"measurement": "viability at 5 µg/mL", "setting": "[2]", "value": 27.9, "unit": "%"}, {"measurement": "Activity", "setting": "[3]", "value": 0, "unit": "%"}, {"measurement": "Activity", "setting": "[4]", "value": 70.13, "unit": "%"}, {"measurement": "Ratio", "setting": "[5]", "value": 0.51}, {"measurement": "viability at 2.5 µg/mL", "setting": "[6]", "value": 46.7, "unit": "%"}, {"measurement": "viability at 1 µg/mL", "setting": "[7]", "value": 78.8, "unit": "%"}, {"measurement": "Ratio", "setting": "[8]", "value": 0.47}, {"measurement": "Activity", "setting": "[9]", "value": 1, "unit": "%"}, {"measurement": "Activity", "setting": "[10]", "value": 52.23, "unit": "%"}, {"measurement": "Activity", "setting": "[11]", "value": 11.24, "unit": "%"}, {"measurement": "IC50", "setting": "[12]", "value": 1, "unit": "µg/mL"}, {"measurement": "Activity", "setting": "[13]", "value": 2, "unit": "%"}, {"measurement": "inhibition at 2.5 µg/mL", "setting": "[14]", "value": 76, "unit": "%"}]}, {"smiles": "CCCCCCCCCC(=O)OCC1=C[C@H]2[C@@H]3C(C)(C)[C@]3(OC(=O)CCCCC)C[C@@H](C)[C@]2(O)[C@@H]2C=C(C)C(=O)[C@@]2(O)C1", "values": [{"measurement": "IC50", "setting": "[12]", "value": 7.2, "unit": "µg/mL"}]}, {"smiles": "C/C=C(/C)C(=O)OCC1=C[C@H]2[C@@H]3C(C)(C)[C@]3(OC(=O)CCCCCCCCC)C[C@@H](C)[C@]2(O)[C@@H]2C=C(C)C(=O)[C@@]2(O)C1", "values": [{"measurement": "IC50", "setting": "[12]", "value": 6.4, "unit": "µg/mL"}]}, {"smiles": "CCCCCCCCCC(=O)OCC1=C[C@H]2[C@@H]3C(C)(C)[C@]3(OC(=O)CCC)C[C@@H](C)[C@]2(O)[C@@H]2C=C(C)C(=O)[C@@]2(O)C1", "values": [{"measurement": "IC50", "setting": "[12]", "value": 7.8, "unit": "µg/mL"}]}, {"smiles": "CCCCCCCCCC(=O)OCC1=C[C@H]2[C@@H]3C(C)(C)[C@]3(OC(C)=O)C[C@@H](C)[C@]2(O)[C@@H]2C=C(C)C(=O)[C@@]2(O)C1", "values": [{"measurement": "IC50", "setting": "[12]", "value": 8.5, "unit": "µg/mL"}]}, {"smiles": "CC(=O)O[C@@]12C[C@@H](C)[C@@]3(O)[C@@H](C=C(COC(=O)c4ccccc4)C[C@]4(O)C(=O)C(C)=C[C@@H]34)[C@@H]1C2(C)C", "values": [{"measurement": "IC50", "setting": "[12]", "value": 8.2, "unit": "µg/mL"}]}, {"smiles": "COc1cccc2c1C(=O)c1c(O)c3c(c(O)c1C2=O)C[C@@](O)(C(=O)CO)C[C@@H]3O[C@H]1C[C@H](N)[C@H](O)[C@H](C)O1.Cl", "note": "[DOXORUBICIN HYDROCHLORIDE]", "values": [{"measurement": "IC50", "setting": "[12]", "value": 10, "unit": "µg/mL"}]}, {"smiles": "COc1cccc2c1C(=O)c1c(O)c3c(c(O)c1C2=O)C[C@@](O)(C(=O)CO)C[C@@H]3O[C@H]1C[C@H](N)[C@H](O)[C@H](C)O1", "note": "[DOXORUBICIN]", "values": [{"measurement": "Activity", "setting": "[15]", "value": 1, "unit": "%"}, {"measurement": "Activity", "setting": "[16]", "value": 61.33, "unit": "%"}, {"measurement": "viability at 0.3 µg/mL", "setting": "[17]", "value": 37.7, "unit": "%"}, {"measurement": "inhibition at 0.3 µg/mL", "setting": "[18]", "value": 37.7, "unit": "%"}, {"measurement": "Ratio", "setting": "[19]", "value": 0.57}]}, {"smiles": "CC(=O)O[C@@]12C[C@@H](C)[C@@]3(O)[C@@H](C=C(CO)C[C@]4(O)C(=O)C(C)=C[C@@H]34)[C@@H]1C2(C)C", "note": "[PROSTRATIN]", "values": [{"measurement": "IC50", "setting": "[12]", "value": 1000, "unit": "µg/mL"}]}]}
